Results reported in patent US20160295854A1, “COMPOSITION AND METHOD FOR EX-VIVO IMMUNOMODULATION AND/OR PRESERVATION OF ORGANS, METHODS AND USE” (UNIAO BRASILEIRA DE EDUCACAO E ASSISTENCIA , MANTENEDORA DA …, priority 2014, published 2016).

Assays:
[1] = test system: MHC II; test: MHC II expression in LPS-activated BMDCs; type: cell-based, mice (Mus musculus); conditions: BMDCs treated or not with LPS 24 h, then treated or not with Hsp70 for additional 24 h
[2] = test system: recipient DCs; test: Indirect alloantigen presentation by recipient DCs (Y-Ae antibody); type: in vivo, mice (Mus musculus); conditions: BALB/c grafts in B6 recipients; vs OVA
Description: Subsequently, the alloantigens presentation was analyzed by the recipient DCs using the antibody Y-Ae. This antibody recognizes a peptide (Eα52-68) expressed in BALB/c animals bound in the MHC II I-A^b molecule (expressed in the B6 animals).

[3] = test system: cutaneous allograft (B6 donor skin in BALB/c recipients); test: Cutaneous allograft model, graft immersion followed by topic application; type: in vivo, mice (Mus musculus)
Description: That is, animals that received grafts treated with Hsp70 receive the local application of a Hsp70 solution and the same for OVA.
After this, the grafts were sutured in BALB/c (I-A^d) animals' back. […] The animals were daily monitored. (A) Schematic representation of the treatment strategy used in the experiment. (B) Photographic record of the clinical progression of the acute rejection in groups Hsp70 and OVA. […] Data achieved from previous experiments.

[4] = test system: cutaneous allograft (B6 donor skin in BALB/c recipients); test: Murine model of cutaneous allograft, graft immersion-treatment; type: in vivo, mice (Mus musculus)
Description: A method for treating grafts, including allografts, was developed by the inventors of the present invention. Thus, the method treats the grafts (that may be full organs) instead of recipient that will receive the graft, using as tool a classic murine model of skin transplantation and well established. Such method, to the light of the inventors, may be considered as new and inventive. The said model consists of a complete incompatibility of MHC molecules and was described by BILLINGHAM & MEDAWAR (1951).
BALB/c recipients, which express the MHC II I-A^d molecule, are anaesthetized and the dorsal stem hairs are removed. In the waxed area, 1 cm^2 of the skin was removed in each recipient mouse and the donor tail skin was sutured in the exposed area. The animals are maintained in individual cages and daily monitored. The graft rejection is confirmed by observing the cyanosis, erythema, erosion and cutaneous graft loss.
This model consists of a complete incompatibility of MHC molecules and was described by BILLINGHAM & MEDAWAR (1951). In this model, the donor mouse B6, which expresses the MHC II I-A^b molecule, is sacrificed. […] After this period, the grafts were sutured in the BALB/c recipients' back, who express the MHC II I-A^d molecule, and the rejection clinical progression is daily monitored.
After that, the grafts were sutured in the BALB/c (I-Ad) animals' back. The animals were daily monitored. ***, p<0.0001. n=22-24 mice per group. The results achieved putting the seven independent experiments together.
After this, these grafts were sutured in BALB/c recipients WT and their rejection were daily monitored.
After this, the grafts were sutured in the BALB/c (I-Ad) animals' back. The animals were daily monitored. *, p<0.05. n=4 mice per group.

[5] = test system: STAT3; test: p-STAT3 intracellular marking in BMDCs; type: cell-based, mice (Mus musculus); conditions: 30 μg/ml, 45 minutes after the stimulus
Description: As positive control, the cells were stimulated with […] of phorbol myristate acetate (PMA) for 30 minutes. After the stimuli in the periods mentioned, the cells were fixed with Cytofix Buffer (BD Biosciences) for 10 minutes at 37° C. and permeated with Phosflow Perm Buffer III (BD Biosciences) for 30 minutes on ice. After such procedures, the cells were marked for p-ERK1/2 and p-STAT3.
For analyzing the recipients T cells, the cells were marked for CD4 (GK1.5), CD8a (53-6.7), Foxp3 (MF23), Ki67 (B56) achieved from BD Biosciences. […] The levels of phosphorylated ERK and STAT3 were determined using antibodies for p-ERK1/2 and p-STAT3 (BD Biosciences) in BMDCs previously fixed and permeablized. The cells were subsequently analyzed in the flow cytometer FACSCanto II (BD Biosciences) with the BD FACSDiva (BD Biosciences) program. The data achieved were analyzed with the Flowjo program (version 7.6.5, Tree Star).
The p-ERK expression was measured by flow cytometry. […] The p-STAT3 expression was measured by flow cytometry. […] After that, the IL-10 mRNA levels were measured by Real-time PCR and the concentration of this cytokine by flow cytometry, using the kit CBA Mouse Inflammation. […] After that, the MARCH-I mRNA levels were analyzed by Real-time PCR. […]

[6] = test system: ERK; test: p-ERK intracellular marking in BMDCs; type: cell-based, mice (Mus musculus)
[7] = test system: CD4+ and CD8+ T cells in recipient DLN; test: Recipient responses in DLN (cell count, Ki67 proliferation, Tregs); type: in vivo, mice (Mus musculus)
Description: Cells of the donor mice (I-A^b+ or GFP+) were detected in the axillary lymph nodes of the recipients, 24 h or 96 h after the transplantation by flow cytometry. The transplanted mice were sacrificed, the axillary lymph nodes were removed and macerated in a nylon screen with a mean that had D Collagenase (Roche®). We achieved a cell suspension that had the cells in contact with Tripan blue and analyzed by flow cytometry.
For analyzing the recipients T cells, the cells were marked for CD4 (GK1.5), CD8a (53-6.7), Foxp3 (MF23), Ki67 (B56) achieved from BD Biosciences. The specific transcription factor marking of Tregs Foxp3 was performed using the kit Mouse Foxp3 Buffer Set (BD Biosciences), according to the manufacturer instructions. The levels of phosphorylated ERK and STAT3 were determined using antibodies for p-ERK1/2 and p-STAT3 (BD Biosciences) in BMDCs previously fixed and permeablized. The cells were subsequently analyzed in the flow cytometer FACSCanto II (BD Biosciences) with the BD FACSDiva (BD Biosciences) program. The data achieved were analyzed with the Flowjo program (version 7.6.5, Tree Star).
When analyzed the median responses in the Recipients' DLNs, it was noted, for inventors surprise, which animals that received grafts treated with OVA presented organs in a greater size when compared with animals that received grafts treated with Hsp70.
For analyzing this hypothesis, the proliferation of these cells was analyzed by marking with Ki67 in the transplanted animals DLN. Ki67 is a molecule having a role in the cellular cycle and is expressed by any organism cell that is proliferating. […] An increase in the number of regulating T cells (Tregs) may reduce the alloreactive T cells proliferation in the recipient DLN, delaying the rejection to grafts. […] These findings are in accordance with the observation that immature DCs administration in human leads to an inhibition of the CD8+ T cells effector functions.
FIG. 7. […]

Substance: Hsp70: recombinant Mycobacterium tuberculosis Hsp70 (DnaK) produced in Escherichia coli BL21, LPS removed
- percentage of CD11c+ I-Ab^hi cells (FIG. 4) [1]: revert partially
- antigens presentation levels by recipient DCs, Y-Ae (FIG. 6 D) [2]: no difference
- graft survival, immersion plus topic application until day 7 (FIG. 18) ([3]; compared to animals treated with OVA): much bigger
- Survival median ([3]; group '- 1 day'): 17.0 days
- graft acceptance after immersion with Hsp70 or peptides (FIG. 17) ([4]; 60 μg/ml Hsp70 or 15 μg/ml peptide, 60 minutes at 4° C., compared to OVA peptide and peptide 5): inhibited the acute rejection
- graft survival compared with grafts treated with OVA (FIG. 1) ([4]; 60 μg/ml, 60 minutes at 4° C.): greater survival
- graft protection with grafts from donors IL-10 KO (FIG. 11 E) ([4]; IL-10 KO grafts, 60 μg/ml, 60 minutes): cancelled the protection
- Survival average ([4]; graft immersed in 60 μg/mL for 60 minutes, seven independent experiments): 20.0 days
- lengthening of graft survival with TLR2 KO grafts (FIG. 12 D) ([4]; mouse, in vivo): dependent on the TLR2 expression in the graft
- survival of WT grafts in WT or TLR2 KO recipients (FIG. 12 E) ([4]; mouse, in vivo): very similar survival
- STAT3 phosphorylation in BMDCs (FIG. 13 C) [5]: induced the phosphorylation STAT3
- p-ERK levels in BMDCs (FIG. 13 A) ([6]; 30 μg/ml, after 15 minutes of stimulus, WT): increase in the phosphor ERK levels
- p-ERK levels in TLR2 KO BMDCs (FIG. 13 B) ([6]; TLR2 KO BMDCs, 15 minutes): increase was not noted
- total of cells of the Recipients' DLNs (FIG. 7 A) ([7]; days 1, 4, 7 and 10 after transplantation, vs OVA): lower absolute number of cells
- CD4+ and CD8+ T cells proliferation (Ki67) in recipient DLN (FIG. 7 B, C) ([7]; graft treated by immersion): reduction marked
- Tregs in the recipient DLN (FIG. 7 D) ([7]; graft treated by immersion): not detected a significant increase
